Assay results taken from the NIST ThermoML archive (doi:10.1016/j.fluid.2012.12.001).
Numbers after ± are expanded uncertainties.

Test: an = ratio of the nth substance listed
Details: for viscosity / mass density: 101 kPa, Liquid; for viscosity: Capillary tube (Ostwald / Ubbelohde) method; for mass density: Vibrating tube method; for surface tension liquid-gas: Capillary rise

CC(O)C(=O)O (centres undefined) [2-hydroxypropanoic acid] + C[N+](C)(C)CCO.[Cl-]
Details	mass density [kg/m3]	surface tension liquid-gas [mN/m]	viscosity [mPa·s]
298.15 K, a1 = 1.3	1166.3 ± 0.2	–	722.55 ± 43
298.15 K, a1 = 1.5	1174.9 ± 0.2	–	615.62 ± 35
298.15 K, a1 = 2	1179.3 ± 0.2	–	536.28 ± 29
298.15 K, a1 = 2.5	1184.7 ± 0.2	–	494.73 ± 25
298.15 K, a1 = 3	1189.3 ± 0.2	–	437.53 ± 22
298.15 K, a1 = 3.5	1193.2 ± 0.2	–	418.14 ± 20
298.15 K, a1 = 5	1200.6 ± 0.2	–	378.56 ± 18
298.15 K, a1 = 8	1208 ± 0.2	–	341.27 ± 15
298.15 K, a1 = 10	1211.3 ± 0.2	–	321.5 ± 14
298.15 K, a1 = 15	1173.2 ± 0.4	–	226.94 ± 8
298.2 K, a1 = 2	–	48 ± 1	–
303.15 K, a1 = 1.3	1163.1 ± 0.2	–	508.17 ± 27
303.15 K, a1 = 1.5	1171.4 ± 0.2	–	428.98 ± 21
303.15 K, a1 = 2	1175.8 ± 0.2	–	370.38 ± 17
303.15 K, a1 = 2.5	1181.1 ± 0.2	–	341.17 ± 15
303.15 K, a1 = 3	1185.6 ± 0.2	–	300.21 ± 13
303.15 K, a1 = 3.5	1189.4 ± 0.2	–	285.25 ± 12
303.15 K, a1 = 5	1196.7 ± 0.2	–	254.91 ± 10
303.15 K, a1 = 8	1204 ± 0.2	–	226.58 ± 8.4
303.15 K, a1 = 10	1207.1 ± 0.2	–	213.35 ± 7.6
303.15 K, a1 = 15	1207.1 ± 0.3	–	163.42 ± 4.6
303.3 K, a1 = 2	–	47.6 ± 0.2	–
308.15 K, a1 = 1.3	1160 ± 0.2	–	364.59 ± 17
308.15 K, a1 = 1.5	1168.2 ± 0.2	–	304.96 ± 13
308.15 K, a1 = 2	1172.5 ± 0.2	–	263.28 ± 10
308.15 K, a1 = 2.5	1177.7 ± 0.2	–	241.21 ± 9
308.15 K, a1 = 3	1182.1 ± 0.2	–	211.64 ± 7.3
308.15 K, a1 = 3.5	1185.9 ± 0.2	–	200.01 ± 6.7
308.15 K, a1 = 5	1193 ± 0.2	–	176.99 ± 5.6
308.15 K, a1 = 8	1200.1 ± 0.2	–	155.91 ± 4.5
308.15 K, a1 = 10	1203 ± 0.2	–	146.37 ± 4.1
308.15 K, a1 = 15	1203 ± 0.2	–	146.37 ± 3.7
308.3 K, a1 = 2	–	47.3 ± 0.2	–
313.15 K, a1 = 1.3	1157 ± 0.2	–	267.49 ± 10
313.15 K, a1 = 1.5	1165 ± 0.2	–	222.55 ± 7.8
313.15 K, a1 = 2	1169.3 ± 0.2	–	191.68 ± 6.2
313.15 K, a1 = 2.5	1174.4 ± 0.2	–	174.9 ± 5.3
313.15 K, a1 = 3	1178.6 ± 0.2	–	153.04 ± 4.3
313.15 K, a1 = 3.5	1182.3 ± 0.2	–	144.01 ± 3.9
313.15 K, a1 = 5	1189.3 ± 0.2	–	126.42 ± 3.1
313.15 K, a1 = 8	1196.2 ± 0.2	–	110.53 ± 2.5
313.15 K, a1 = 10	1199 ± 0.2	–	103.52 ± 2.2
313.15 K, a1 = 15	1199 ± 0.2	–	103.52 ± 2.2
313.5 K, a1 = 2	–	47 ± 1	–
318.15 K, a1 = 1.3	1154 ± 0.2	–	200.31 ± 6.5
318.15 K, a1 = 1.5	1161.9 ± 0.2	–	165.87 ± 4.8
318.15 K, a1 = 2	1166.2 ± 0.2	–	142.7 ± 3.7
318.15 K, a1 = 2.5	1171.1 ± 0.2	–	129.75 ± 3.1
318.15 K, a1 = 3	1175.2 ± 0.2	–	113.34 ± 2.5
318.15 K, a1 = 3.5	1178.8 ± 0.2	–	106.26 ± 2.2
318.15 K, a1 = 5	1185.6 ± 0.2	–	92.66 ± 1.7
318.15 K, a1 = 8	1192.3 ± 0.2	–	80.53 ± 1.3
318.15 K, a1 = 10	1195 ± 0.2	–	75.26 ± 1.2
318.15 K, a1 = 15	1195 ± 0.2	–	75.26 ± 1.2
319.2 K, a1 = 2	–	46.7 ± 0.2	–
323.15 K, a1 = 1.3	1151.1 ± 0.2	–	152.8 ± 4.1
323.15 K, a1 = 1.5	1158.9 ± 0.2	–	126.22 ± 2.9
323.15 K, a1 = 2	1163 ± 0.2	–	108.45 ± 2.2
323.15 K, a1 = 2.5	1167.9 ± 0.2	–	98.3 ± 1.8
323.15 K, a1 = 3	1171.8 ± 0.2	–	85.77 ± 1.4
323.15 K, a1 = 3.5	1175.3 ± 0.2	–	80.16 ± 1.2
323.15 K, a1 = 5	1181.9 ± 0.2	–	69.53 ± 0.96
323.15 K, a1 = 8	1188.4 ± 0.2	–	60.12 ± 0.75
323.15 K, a1 = 10	1191 ± 0.2	–	56.1 ± 0.68
323.15 K, a1 = 15	1191 ± 0.2	–	56.1 ± 0.68
323.5 K, a1 = 2	–	46.5 ± 0.2	–
328.15 K, a1 = 1.3	1148.2 ± 0.2	–	118.6 ± 2.6
328.15 K, a1 = 1.5	1155.8 ± 0.2	–	97.77 ± 1.8
328.15 K, a1 = 2	1159.9 ± 0.2	–	83.99 ± 1.3
328.15 K, a1 = 2.5	1164.6 ± 0.2	–	75.93 ± 1.1
328.15 K, a1 = 3	1168.4 ± 0.2	–	66.19 ± 0.81
328.15 K, a1 = 3.5	1171.8 ± 0.2	–	61.71 ± 0.72
328.15 K, a1 = 5	1178.3 ± 0.2	–	53.28 ± 0.58
328.15 K, a1 = 8	1184.5 ± 0.2	–	45.88 ± 0.56
328.15 K, a1 = 10	1186.9 ± 0.2	–	42.76 ± 0.52
328.15 K, a1 = 15	1186.9 ± 0.2	–	42.76 ± 0.52
328.6 K, a1 = 2	–	46.2 ± 0.2	–
333.15 K, a1 = 1.3	1145.3 ± 0.2	–	93.55 ± 1.6
333.15 K, a1 = 1.5	1152.7 ± 0.2	–	76.99 ± 1.1
333.15 K, a1 = 2	1156.7 ± 0.2	–	66.16 ± 0.76
333.15 K, a1 = 2.5	1161.3 ± 0.2	–	59.67 ± 0.63
333.15 K, a1 = 3	1165 ± 0.2	–	52 ± 0.51
333.15 K, a1 = 3.5	1168.3 ± 0.2	–	48.38 ± 0.54
333.15 K, a1 = 5	1174.6 ± 0.2	–	41.63 ± 0.47
333.15 K, a1 = 8	1180.5 ± 0.2	–	35.72 ± 0.41
333.15 K, a1 = 10	1182.9 ± 0.2	–	33.26 ± 0.38
333.15 K, a1 = 15	1182.9 ± 0.2	–	33.26 ± 0.38
333.2 K, a1 = 2	–	46 ± 1	–
338.1 K, a1 = 2	–	45.7 ± 0.2	–
338.15 K, a1 = 1.3	1142.4 ± 0.2	–	74.84 ± 0.96
338.15 K, a1 = 1.5	1149.7 ± 0.2	–	61.57 ± 0.63
338.15 K, a1 = 2	1153.6 ± 0.2	–	53.08 ± 0.49
338.15 K, a1 = 2.5	1158 ± 0.2	–	47.66 ± 0.5
338.15 K, a1 = 3	1161.6 ± 0.2	–	41.53 ± 0.44
338.15 K, a1 = 3.5	1164.8 ± 0.2	–	38.58 ± 0.41
338.15 K, a1 = 5	1170.9 ± 0.2	–	33.1 ± 0.36
338.15 K, a1 = 8	1176.6 ± 0.2	–	28.33 ± 0.31
338.15 K, a1 = 10	1178.8 ± 0.2	–	26.35 ± 0.29
338.15 K, a1 = 15	1178.8 ± 0.2	–	26.35 ± 0.29
343.15 K, a1 = 1.3	1139.6 ± 0.2	–	60.71 ± 0.59
343.15 K, a1 = 1.5	1146.7 ± 0.2	–	49.92 ± 0.5
343.15 K, a1 = 2	1150.5 ± 0.2	–	43.05 ± 0.43
343.15 K, a1 = 2.5	1154.8 ± 0.2	–	38.64 ± 0.39
343.15 K, a1 = 3	1158.2 ± 0.2	–	33.66 ± 0.34
343.15 K, a1 = 3.5	1161.3 ± 0.2	–	31.24 ± 0.32
343.15 K, a1 = 5	1167.2 ± 0.2	–	26.74 ± 0.27
343.15 K, a1 = 8	1172.7 ± 0.2	–	22.83 ± 0.24
343.15 K, a1 = 10	1174.7 ± 0.2	–	21.23 ± 0.22
343.15 K, a1 = 15	1174.7 ± 0.2	–	21.23 ± 0.22
348.15 K, a1 = 1.3	1136.7 ± 0.2	–	49.84 ± 0.48
348.15 K, a1 = 1.5	1143.7 ± 0.2	–	41.01 ± 0.4
348.15 K, a1 = 2	1147.4 ± 0.2	–	35.4 ± 0.34
348.15 K, a1 = 2.5	1151.5 ± 0.2	–	31.75 ± 0.31
348.15 K, a1 = 3	1154.9 ± 0.2	–	27.66 ± 0.27
348.15 K, a1 = 3.5	1157.8 ± 0.2	–	25.64 ± 0.25
348.15 K, a1 = 5	1163.5 ± 0.2	–	21.91 ± 0.22
348.15 K, a1 = 8	1168.8 ± 0.2	–	18.68 ± 0.19
348.15 K, a1 = 10	1170.7 ± 0.2	–	17.36 ± 0.17
348.15 K, a1 = 15	1170.7 ± 0.2	–	17.36 ± 0.17
353.15 K, a1 = 1.3	1133.9 ± 0.2	–	41.4 ± 0.39
353.15 K, a1 = 1.5	1140.7 ± 0.2	–	34.08 ± 0.32
353.15 K, a1 = 2	1144.3 ± 0.2	–	29.46 ± 0.27
353.15 K, a1 = 2.5	1148.3 ± 0.2	–	26.41 ± 0.25
353.15 K, a1 = 3	1151.5 ± 0.2	–	23.01 ± 0.22
353.15 K, a1 = 3.5	1154.2 ± 0.2	–	21.32 ± 0.2
353.15 K, a1 = 5	1159.8 ± 0.2	–	18.2 ± 0.17
353.15 K, a1 = 8	1164.8 ± 0.2	–	15.49 ± 0.15
353.15 K, a1 = 10	1166.7 ± 0.2	–	14.38 ± 0.14
353.15 K, a1 = 15	1166.7 ± 0.2	–	14.38 ± 0.14
358.15 K, a1 = 1.3	1131.1 ± 0.2	–	34.75 ± 0.31
358.15 K, a1 = 1.5	1137.7 ± 0.2	–	28.64 ± 0.26
358.15 K, a1 = 2	1141.2 ± 0.2	–	24.79 ± 0.22
358.15 K, a1 = 2.5	1145.1 ± 0.2	–	22.22 ± 0.2
358.15 K, a1 = 3	1148.1 ± 0.2	–	19.37 ± 0.18
358.15 K, a1 = 3.5	1150.9 ± 0.2	–	17.94 ± 0.16
358.15 K, a1 = 5	1156.1 ± 0.2	–	15.29 ± 0.14
358.15 K, a1 = 8	1160.9 ± 0.2	–	13.01 ± 0.12
358.15 K, a1 = 10	1162.7 ± 0.2	–	12.05 ± 0.11
358.15 K, a1 = 15	1162.7 ± 0.2	–	12.05 ± 0.11
363.15 K, a1 = 1.3	1128.3 ± 0.2	–	29.44 ± 0.27
363.15 K, a1 = 1.5	1134.7 ± 0.2	–	24.31 ± 0.18
363.15 K, a1 = 2	1138.1 ± 0.2	–	21.08 ± 0.18
363.15 K, a1 = 2.5	1141.9 ± 0.2	–	18.89 ± 0.18
363.15 K, a1 = 3	1144.7 ± 0.2	–	16.45 ± 0.14
363.15 K, a1 = 3.5	1147.4 ± 0.2	–	15.29 ± 0.14
363.15 K, a1 = 5	1152.3 ± 0.2	–	12.99 ± 0.11
363.15 K, a1 = 8	1157.1 ± 0.2	–	11.05 ± 0.1
363.15 K, a1 = 10	1158.6 ± 0.2	–	10.23 ± 0.088
363.15 K, a1 = 15	1158.6 ± 0.2	–	10.23 ± 0.098
